The record followed here is patent publication US12090146B2, “Substituted-pyridinyl compounds and uses thereof” (Bionomics Limited, priority 2018, dated 2024).

The structures appear in SMILES notation.

One assay has as its target T1, hKv3.2 (Homo sapiens, UniProt Q96PR1).
T1 construct: expressed in transfected cells
T1 sequence (Q96PR1 1-638): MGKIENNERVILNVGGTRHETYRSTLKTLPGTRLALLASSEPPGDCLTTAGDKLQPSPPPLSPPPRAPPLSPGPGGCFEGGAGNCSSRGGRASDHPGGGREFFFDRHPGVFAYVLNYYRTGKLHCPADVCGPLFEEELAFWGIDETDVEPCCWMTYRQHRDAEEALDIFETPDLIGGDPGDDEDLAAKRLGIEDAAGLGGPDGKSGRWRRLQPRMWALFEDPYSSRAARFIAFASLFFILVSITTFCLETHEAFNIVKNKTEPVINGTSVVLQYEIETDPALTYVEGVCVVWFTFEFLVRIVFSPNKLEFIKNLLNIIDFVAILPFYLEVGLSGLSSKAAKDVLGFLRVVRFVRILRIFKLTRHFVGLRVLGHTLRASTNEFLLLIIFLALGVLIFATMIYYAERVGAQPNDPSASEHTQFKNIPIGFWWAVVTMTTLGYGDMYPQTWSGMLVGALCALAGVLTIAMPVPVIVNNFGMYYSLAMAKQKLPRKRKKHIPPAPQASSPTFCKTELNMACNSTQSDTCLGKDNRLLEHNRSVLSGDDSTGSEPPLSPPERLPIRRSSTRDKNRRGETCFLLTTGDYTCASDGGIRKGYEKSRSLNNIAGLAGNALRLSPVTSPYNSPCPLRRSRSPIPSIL
Kind of assay: Automated patch clamp (Patchliner) whole-cell electrophysiology, Kv3.2. The settings on record: 10 μM compound, CHO-K1 cells stably expressing hKv3.2; for activation at 10 µM: % potentiation of peak current at −10 mV voltage step vs vehicle; for Kv3.2 Activity at 10 μM Voltage Shift (mV): voltage shift of the IV curve at V1/2. The assay is classed as cell-based. The protocol: (§1) hKv3.1, hKv3.2, hKv3.3, and hKv3.4 were stably expressed in CHO-K1 (Chinese hamster ovary) cells and kept under constant antibiotic selection. For in vitro assays, cells were maintained in appropriate growth medium at 37° C. and 5% CO2 in a humidified incubator.
(§2) hKv3.X expressing cells were plated in T-25 flasks for 3-4 days at 37° C. (no selection antibiotic) prior to use and grown to 80% confluence. Cells were washed twice with PBS (calcium and magnesium free) and detached with a 5-minute treatment at 37° C. with 2-3 mls of Accutase®. Cells were collected, and flask was washed in CHO-SFM II media (Life Technologies Gibco), centrifuged for 2 minutes at ˜110×g and resuspended to obtain a single cell suspension of ˜2-3×10^6 cells/ml.
(§3) The intracellular solution contained the following (in mM): KCl 50, NaCl 10, KF 60, EGTA 20, HEPES 10, adjusted to pH 7.2 with KOH and an osmolarity of 285 mOsmol. Seal enhancer was purchased from Nanion (80 mM NaCl, 3 mM KCl, 10 mM MgCl2, 35 mM CaCl2), 10 mM HEPES, pH7.4, 298 mOsmol. The external solution contained (in mM): NaCl 140, KCl 4, CaCl2) 2, MgCl2 1, HEPES 10, Glucose 5, adjusted to pH7.4 and an osmolarity of 298 mOsmol.
(§4) All compounds were initially tested at 10 uM at a final DMSO concentration of 0.33%. Compounds were dissolved in dimethylsulfoxide (DMSO) at a stock concentration of 30 mM. The compound was further diluted 1:10 to give a stock concentration of 3 mM in DMSO. The final assay solution was diluted 1:300 in External solution to give a final concentration of 10 uM. For the DMSO Control Buffer 30 uL of DMSO was added to 10 mL buffer.
(§5) All electrophysiological recordings were performed at ambient temperature (21-23° C.) using automated patch clamp (Patchliner, Nanion Technologies GmbH) in the whole-cell configuration.
(§6) Cell membrane potentials were held at −80 mV, and currents were evoked by voltage steps (1000 ms duration) from −60 to +60 mV in 10 mV increments. This was performed first with vehicle (0.33% DMSO) and then with 10 uM compound, after a 3-minute incubation period. Data was taken from 4 cells per assay.
(§7) The recordings were analysed and selected using peak current amplitude (>100 pA at the −10 mV voltage step) in the absence of compound to eliminate unsuitable cells from analysis. Peak current amplitude was measured and recorded for each voltage step and data was normalised to the maximum current at +60 mV. The normalised Kv3.x currents following addition of the compound were then compared with the currents recorded prior to compound addition (vehicle control). Positive modulation was determined as % potentiation at the voltage step of −10 mV=[current (cmpd)/current (veh)]*100−100. % potentiation ≥50% was considered acceptable. In addition, voltage shift of the IV curve at V1/2 was measured. V1/2 of ≥−5 mV was also considered acceptable. IV curves were plotted in GraphPad Prism (software version 6.0) and fitted with a Boltzmann equation, where V1/2 is the voltage at half-maximal activation.
(Patch clamp records ionic current or voltage across a cell membrane.)

A further assay has as its target T2, hKv3.1 (Homo sapiens, UniProt P48547).
T2 construct: expressed in transfected cells
T2 sequence (P48547 1-511): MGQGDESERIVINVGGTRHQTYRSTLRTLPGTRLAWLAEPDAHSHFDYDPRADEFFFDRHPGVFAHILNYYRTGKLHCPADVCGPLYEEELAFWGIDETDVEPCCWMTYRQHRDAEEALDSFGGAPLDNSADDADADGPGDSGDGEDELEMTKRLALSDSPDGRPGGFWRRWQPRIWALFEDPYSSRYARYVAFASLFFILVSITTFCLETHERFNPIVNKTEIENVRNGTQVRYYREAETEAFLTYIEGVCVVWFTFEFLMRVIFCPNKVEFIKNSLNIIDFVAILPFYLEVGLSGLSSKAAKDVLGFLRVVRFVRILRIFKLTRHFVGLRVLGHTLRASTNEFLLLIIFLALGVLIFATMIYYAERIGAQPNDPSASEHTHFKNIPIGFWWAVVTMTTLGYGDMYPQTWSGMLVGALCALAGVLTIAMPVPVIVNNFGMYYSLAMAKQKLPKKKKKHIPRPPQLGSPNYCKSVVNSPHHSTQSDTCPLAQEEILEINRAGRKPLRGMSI
Kind of assay: Automated patch clamp (Patchliner) whole-cell electrophysiology, Kv3.1. The settings on record: 10 μM compound, CHO-K1 cells stably expressing hKv3.1; for Kv3.1 Activity at 10 μM Potentiation (%): % potentiation of peak current at −10 mV voltage step vs vehicle; for Kv3.1 Activity at 10 μM Voltage Shift (mV): voltage shift of the IV curve at V1/2. The assay is classed as cell-based. The protocol: as §1, §2, §3, §4, §5, §6, §7

Turning to `CC[C@@]1(C)NC(=O)N(c2ccnc(Oc3ccc4c(c3)CCC4)c2)C1=O` [Example 13, (5R)-5-ethyl-3-(2-indan-5-yloxy-4-pyridyl)-5-methyl-imidazolidine-2,4-dione], at hKv3.2, the activation at 10 µM came to 48% and the “Kv3.2 Activity at 10 μM Voltage Shift (mV)” value was −4.48 mV. Also, at hKv3.1, the “Kv3.1 Activity at 10 μM Potentiation (%)” value is on record as 27% and the “Kv3.1 Activity at 10 μM Voltage Shift (mV)” value is −3.9 mV.
Turning to `COc1cc(Oc2cc(N3C(=O)NC4(CCN(C)CC4)C3=O)ccn2)ccc1C` [Example 30, 3-[2-(3-methoxy-4-methyl-phenoxy)-4-pyridyl]-8-methyl-1,3,8-triazaspiro[4.5]decane-2,4-dione], on hKv3.2, the activation at 10 µM was -4% and the “Kv3.2 Activity at 10 μM Voltage Shift (mV)” value amounted to 2.06 mV. On hKv3.1, the “Kv3.1 Activity at 10 μM Potentiation (%)” value is listed as 26% and the “Kv3.1 Activity at 10 μM Voltage Shift (mV)” value is recorded as −0.83 mV.
With `COc1cc(Oc2cc(N3C(=O)NC4(CCCC4)C3=O)ccn2)ccc1C` [Example 33, 3-[2-(3-methoxy-4-methyl-phenoxy)-4-pyridyl]-1,3-diazaspiro[4.4]nonane-2,4-dione], at hKv3.2, the activation at 10 µM came out at 22% and the “Kv3.2 Activity at 10 μM Voltage Shift (mV)” value is −2.72 mV. Besides, at hKv3.1, the “Kv3.1 Activity at 10 μM Potentiation (%)” value is recorded as 64% and the “Kv3.1 Activity at 10 μM Voltage Shift (mV)” value is listed as −5.74 mV.
As for `COc1cc(Oc2cc(N3C(=O)NC4(CCC4)C3=O)ccn2)ccc1C` [Example 34, 7-[2-(3-methoxy-4-methyl-phenoxy)-4-pyridyl]-5,7-diazaspiro[3.4]octane-6,8-dione], on hKv3.2, the activation at 10 µM was 25% and the “Kv3.2 Activity at 10 μM Voltage Shift (mV)” value was −1.25 mV. Further, on hKv3.1, the “Kv3.1 Activity at 10 μM Potentiation (%)” value is 27% and the “Kv3.1 Activity at 10 μM Voltage Shift (mV)” value is recorded as −4.19 mV.
With `O=C1NC2(CCCCC2)C(=O)N1c1ccnc(Oc2ccc3c(c2)OCO3)c1` [Example 35, 3-[2-(1,3-benzodioxol-5-yloxy)-4-pyridyl]-1,3-diazaspiro[4.5]decane-2,4-dione], at hKv3.2, the activation at 10 µM worked out at 55% and the “Kv3.2 Activity at 10 μM Voltage Shift (mV)” value was −3.73 mV. Further, on hKv3.1, the “Kv3.1 Activity at 10 μM Potentiation (%)” value was determined as 41% and the “Kv3.1 Activity at 10 μM Voltage Shift (mV)” value is on record as −3.4 mV.
For `O=C1NC2(CCCC2)C(=O)N1c1ccnc(Oc2ccc3c(c2)OC(F)(F)O3)c1` [Example 36, 3-[2-[(2,2-difluoro-1,3-benzodioxol-5-yl)oxy]-4-pyridyl]-1,3-diazaspiro[4.4]nonane-2,4-dione], in that order: 43%, −4.8 mV, 85% and −6.21 mV.
For `O=C1NC2(CCC2)C(=O)N1c1ccnc(Oc2ccc3c(c2)OC(F)(F)O3)c1` [Example 37, 7-[2-[(2,2-difluoro-1,3-benzodioxol-5-yl)oxy]-4-pyridyl]-5,7-diazaspiro[3.4]octane-6,8-dione], on hKv3.2, the activation at 10 µM was 63% and the “Kv3.2 Activity at 10 μM Voltage Shift (mV)” value is recorded as −3.6 mV. Besides, on hKv3.1, the “Kv3.1 Activity at 10 μM Potentiation (%)” value is recorded as 90% and the “Kv3.1 Activity at 10 μM Voltage Shift (mV)” value is reported as −5.21 mV.
For the compound `COc1cc(Oc2cncc(N3C(=O)NC(C)(C)C3=O)c2)ccc1C` [Example 39, 3-[5-(3-methoxy-4-methyl-phenoxy)-3-pyridyl]-5,5-dimethyl-imidazolidine-2,4-dione], on hKv3.2, the activation at 10 µM amounted to 31% and the “Kv3.2 Activity at 10 μM Voltage Shift (mV)” value is given as −3.78 mV. Also, at hKv3.1, the “Kv3.1 Activity at 10 μM Potentiation (%)” value amounted to 25% and the “Kv3.1 Activity at 10 μM Voltage Shift (mV)” value is recorded as −2.77 mV.
`CC[C@H]1NC(=O)N(c2cc(Oc3ccc(C)c(OC)c3)ccn2)C1=O` [Example 41, (5R)-5-ethyl-3-[4-(3-methoxy-4-methyl-phenoxy)-2-pyridyl]imidazolidine-2,4-dione]: at hKv3.2, the activation at 10 µM came to 53% and the “Kv3.2 Activity at 10 μM Voltage Shift (mV)” value is recorded as −3.77 mV. For the same compound, at hKv3.1, the “Kv3.1 Activity at 10 μM Potentiation (%)” value is listed as 67% and the “Kv3.1 Activity at 10 μM Voltage Shift (mV)” value was −4.46 mV.
For `COc1cc(Oc2ccnc(N3C(=O)NC(C)(C)C3=O)c2)ccc1C` [Example 44, 3-[4-(3-methoxy-4-methyl-phenoxy)-2-pyridyl]-5,5-dimethyl-imidazolidine-2,4-dione] the same measures were 28%, −2.81 mV, 45% and −3.03 mV.
For the compound `CC[C@@]1(C)NC(=O)N(c2cc(Oc3ccc(C)c(OC)c3)ccn2)C1=O` [Example 45, (5R)-5-ethyl-3-[4-(3-methoxy-4-methyl-phenoxy)-2-pyridyl]-5-methyl-imidazolidine-2,4-dione], on hKv3.2, the activation at 10 µM stood at 61% and the “Kv3.2 Activity at 10 μM Voltage Shift (mV)” value is recorded as −6.69 mV. At hKv3.1, the “Kv3.1 Activity at 10 μM Potentiation (%)” value was determined as 19% and the “Kv3.1 Activity at 10 μM Voltage Shift (mV)” value is listed as −2.36 mV.
`CC[C@H]1NC(=O)N(c2cccc(Oc3ccc(C)c(OC)c3)n2)C1=O` [Example 48, (5R)-5-ethyl-3-[6-(3-methoxy-4-methyl-phenoxy)-2-pyridyl]imidazolidine-2,4-dione]: at hKv3.2, the activation at 10 µM was found to be 61% and the “Kv3.2 Activity at 10 μM Voltage Shift (mV)” value is −5.3 mV. Moreover, on hKv3.1, the “Kv3.1 Activity at 10 μM Potentiation (%)” value is on record as 62% and the “Kv3.1 Activity at 10 μM Voltage Shift (mV)” value is reported as −4.26 mV.
`CC[C@@]1(C)NC(=O)N(c2cccc(Oc3ccc(C)c(OC)c3)n2)C1=O` [Example 58, (5R)-5-ethyl-3-[6-(3-methoxy-4-methyl-phenoxy)-2-pyridyl]-5-methyl-imidazolidine-2,4-dione]: at hKv3.2, the activation at 10 µM worked out at 33% and the “Kv3.2 Activity at 10 μM Voltage Shift (mV)” value is on record as −2.6 mV. Further, on hKv3.1, the “Kv3.1 Activity at 10 μM Potentiation (%)” value was 35% and the “Kv3.1 Activity at 10 μM Voltage Shift (mV)” value is −5.32 mV.
